Assay results as given in patent US8518906B2, “Rho kinase inhibitors for treatment of mastocytosis and acute myeloid leukemia” (Indiana University Research & Technology Corporation, priority 2011, dated 2013).
Like-named read-outs stand apart in the source and are kept apart here.

Key:
[1] = Experimental: After 48 hours of transplantation, mice were treated with vehicle (PBS) or H-1152 (66 mg/kg body weight) by oral gavage at 12 hours interval for 14 days. In the second study, mice were treated with vehicle, H-1152 (50 mg/kg body weight, oral gavage) or fasudil (25 mg/kg body weight, intraperitoneal) at 24 hour intervals for 21 days. […] After 10 days of transplantation, mice were treated with vehicle, H-1152 (50 mg/kg body weight, oral gavage) or fasudil (25 mg/kg body weight, intraperitoneal) at 24 hour intervals for 21 days. In all studies, mice were closely monitored for MPD and harvested at moribund. Bone marrow, spleen, liver and lungs were fixed in 10% buffered formalin and sections were stained with hematoxylin and eosin for histopathologic analysis.
[2] = human trials for cardiovascular indications; cited from earlier work
[3] = test system: mice transplanted with 32D cells bearing FLT3N51; test: MPD and survival of mice transplanted with 32D cells bearing FLT3N51; type: in vivo, C3H/HeJ mice; details: treated for 21 days starting two weeks after transplantation, vs PBS
Experimental: To further determine the efficacy of ROCK inhibitors in treating MPD due to activating mutations in receptor tyrosine kinases, similar pharmacological studies were performed using a different oncogene and a distinct ROCK inhibitor. 32D cells bearing FLT3N51 were transplanted into syngenic C3H/HeJ mice through tail vein. After two weeks of transplantation, mice were treated with PBS (vehicle), H-1152, or fasudil for 21 days and monitored for MPD and survival. […] After 5 weeks of prolonged survival compared to PBS treated mice, H-1152 or fasudil treated mice were sacrificed and further analysis were performed.

[4] = test system: primary HSC/Ps bearing FLT3N51; test: Proliferation, primary HSC/Ps transduced with FLT3N51; type: cell-based, C57BL/6 mice
Experimental: Retroviral supernatants for transduction of 32D and primary HSC/Ps were generated using the Phoenix ecotropic packaging cell line transfected with retroviral vector plasmids using a calcium phosphate transfection kit (Invitrogen, Carlsbad, Calif.). Supernatants were collected 48 hours after transfection and filtered through […] membranes. 32D cells were infected with 2 mL high-titer virus supernatant in the presence of polybrene (8 μg/mL) and IL-3 (10 ng/mL). Low density mononuclear cells (LDMNCs) were suspended in IMDM containing 20% FBS and 1% penicillin/streptomycin, and pre-stimulated in non-tissue culture plates supplemented with SCF (100 ng/mL), FL T3L (50 ng/mL), IL-6 (4 ng/mL), and Tpo (100 ng/mL) for 48 hours prior to retroviral infection on fibronectin fragments. After infection, 32D and primary HSC/Ps bearing the vector, WT or oncogenic receptors were sorted to homogeneity based on EGFP expression and used to perform all experiments.
To validate whether the suppression in growth of oncogene bearing cells by ROCK inhibitors observed in 32D cells also occurs in primary hematopoietic stem and progenitor cells (HSC/Ps), primary HSC/Ps from C57BL/6 mice were transduced with FLT3 or FLT3N51 and analyzed for proliferation in the presence or absence of ROCK inhibitors.

[5] = test system: cells derived from AML and mastocytosis patients; test: Growth (thymidine incorporation) of cells derived from AML and mastocytosis patients; type: cell-based, human
Text: (§1) Blast cells from the bone marrow of patients with AML were obtained at the time of diagnostic testing. Approval was obtained from the institutional review boards of Indiana University School of Medicine. The buoyant fraction was isolated over Ficoll-Hypaque, and then washed with phosphate-buffered saline (PBS) before processing.
(§2) Specifically, the growth of HMC1.2 cells bearing the activating KIT mutation (KITV560G and KITD816V) and MV4-11 cells bearing the activating FLT3 mutation (FLT3-ITD) treated with H-1152 was determined.

[6] = test system: cells bearing CHRD814V or CHRD814V-Y719; test: Constitutive growth of cells bearing CHRD814V or CHRD814V-Y719; type: cell-based
Text: (§3) Utilizing Chimeric KIT receptors (CHR) as template, we generated the mutant CHRD814V and CHRD814V with none (CHRD814V-F7) or single intracellular tyrosine add-back mutant at 719 (CHRD814V-Y719) using the Quick change Site-Directed Mutagenesis kit (Stratagene, La Jolla, Calif.) and the following primer pair (SEQ ID NO: 2: forward: 5′-[…]-3; SEQ ID NO: 3: reverse: 5′-[…]-3′). All of these mutated CHRD814V receptors were verified by direct sequencing.
(§4) CHRD814V-Y719 is similar to CHRD814V-F7 except that tyrosine residue 719 (the binding site for p85α) is preserved.

32D cells bearing KIT = test: F-actin content, 32D cells bearing KIT with IL-3; type: cell-based, murine; details: in the presence of IL-3
Experimental: After treatment, cells were fixed with 4% paraformaldehyde in PBS for 15 min and washed with PBS. After fixing, cells were quenched with 0.1 M glycine in PBS for 15 min and washed with PBS. Then, cells were permeabilized with 0.2% Triton X-100 (w/v) in PBS for 10 min and washed with PBS followed by blocking non-specific binding sites with 5% rat serum containing 0.2% BSA in PBS. Cells were stained with FITC-conjugated phalloidin for 30 min, washed with 0.2% BSA in PBS, and analyzed by flow cytometry.

ROCK = ROCK activity (pMYPT1) in cells derived from AML and mastocytosis patients; type: cell-based, human
Text: as §1, §2

[7] = test system: HMC1.2 cells (KITV560G and KITD816V); test: Growth of HMC1.2 cells; type: cell-based, Human
Experimental: (§5) The murine IL-3 dependent and G418 resistant pro-B cell line BaF3 bearing FLT3 and FLT3N51 were cultured in medium containing IMDM supplemented with 10% FBS, G418 (2 mg/mL), and murine IL-3 (5 ng/mL). The Human mast cell leukemia line, bearing the KITV560G as well as KITD816V mutations, HMC1.2 and acute myeloid leukemia (AML) cell line, bearing the FLT3-ITD mutation, MV4-11 were obtained from the American Type Culture Collection (Manassas, Va.) and cultured in medium containing IMDM supplemented with 15% FBS and 1.2 mM monothioglycerol.
as §2

[8] = test system: 32D cells bearing BCR-ABLT315I; test: Proliferation, 32D cells expressing imatinib-resistant BCR-ABLT315I mutant; type: cell-based, murine
[9] = test system: KIT or MIEG3 bearing 32D cells; test: Cell death (annexin V and 7-AAD), KIT or MIEG3 bearing 32D cells; type: cell-based, murine
Experimental: 2×10^5 cells were plated in 24 well plates in the presence and absence of IL-3 and indicated concentrations of different ROCK inhibitors. Forty eight hours after treatment, cells were washed with PBS and the percentage of cell death was determined by annexin V and 7-AAO staining. Cells were re-suspended in 1× annexin V binding buffer and incubated for 30 min at 4° C. Cells were incubated with 5 μL each of annexin V and 7-AAO for 20 min at room temperature in the dark. After incubation, percentage of apoptotic cells (annexin V and 7-AAO positive) was determined using flow cytometry.
In this Example, the survival of oncogene bearing cells in the presence or absence of ROCK inhibitors was evaluated to determine how ROCK inhibitors might inhibit the growth of oncogene bearing cells.

[10] = test system: cells bearing CHRD814V-F7; test: Growth of cells bearing CHRD814V-F7 in the presence of IL-3; type: cell-based; details: cells bearing CHRD814V-F7, in the presence of IL-3, data not shown
Text: as §3, §4

[11] = test system: AKT, ERK, Stat5, PKA and PKC; test: Activation of AKT, ERK, Stat5, PKA and PKC in oncogene bearing cells, Western blot; type: cell-based, murine
Experimental: Cells were lysed in lysis buffer and centrifuged at 10,000 rpm for 5 min at 4° C. Supernatants were collected and protein concentration was determined using the BCA protein assay (Thermo Fisher Scientific, Rockford, Ill.). Equal amounts of protein extracts were mixed with gel loading buffer and separated on SDS-polyacrylamide gels. After electrophoresis, the proteins were transferred onto nitrocellulose membranes and nonspecific binding was blocked with 5% nonfat dry milk in Tris-buffered saline containing 0.1% Tween-20 (TBS-T). Membranes were then probed with various antibodies overnight at 4° C. on a rocker. After incubation, membranes were washed with TBS-T and incubated with appropriate horseradish peroxidase (HRP)-conjugated secondary antibodies for 1 hour at room temperature. Finally, the proteins on the membranes were detected using SuperSignal West Dura Luminol/Enhancer solution (Thermo Fisher Scientific, Rockford, Ill.) and exposing the membranes to X-ray film.

MV4-11 cells (FLT3-ITD) = test: Growth of MV4-11 cells; type: cell-based, Human
Experimental: as §5, §2

[12] = test system: 32D cells bearing MIEG3 or KIT, BaF3 cells bearing FLT3; test: Proliferation (thymidine incorporation), cells bearing MIEG3, KIT or FLT3 with IL-3; type: cell-based, murine; details: cells bearing MIEG3, KIT or FLT3, in the presence of IL-3
Experimental: as §5
IL-3 enhances the growth of these cells.

| Compound | signs of toxicity ([1]; mouse, in vivo) | toxicity upon ROCK inhibition in vivo [2] | spleen and liver weights [3] | proliferation (thymidine incorporation) [4] | growth (thymidine incorporation) [5] | signs of toxicity ([1]; treated mice) | constitutive growth (thymidine incorporation) [6] | F-actin content (32D cells bearing KIT) | ROCK activity (ROCK) | growth of HMC1.2 cells [7] | growth of cells bearing BCR-ABLT315I [8] | cell death [9] | growth [10] | activation of AKT, ERK, Stat5, and PKC ([11]; Example 1) | activation of ERK, AKT, Stat5, PKA and PKC ([11]; Example 8) | survival [3] | growth of MV4-11 cells (MV4-11 cells (FLT3-ITD)) | proliferation (thymidine incorporation) [12] |
| --- | --- | --- | --- | --- | --- | --- | --- | --- | --- | --- | --- | --- | --- | --- | --- | --- | --- | --- |
| O=S(=O)(c1cccc2cnccc12)N1CCCNCC1 [fasudil] | no signs of toxicity | lack of toxicity | significantly reduced spleen and liver weights | significant reduction in the growth |  |  |  |  |  |  |  |  |  |  |  |  |  |  |
| C[C@@H](N)[C@H]1CC[C@H](C(=O)Nc2ccncc2)CC1 [Y27632] |  |  |  | significant reduction in the growth |  |  |  |  |  |  |  |  |  |  |  |  |  |  |
| Cc1cncc2cccc(S(=O)(=O)N3CCCNC[C@@H]3C)c12 [H-1152] |  |  | significantly reduced spleen and liver weights | significant reduction in proliferation | repression in ROCK activity and growth | no signs of toxicity | dose dependent inhibition in constitutive growth | no effect on F-actin content | repression in ROCK activity | dose dependent reduction in growth | dose dependent suppression in growth | 5-10% | only a moderate suppression in growth | no effect | relatively unperturbed | significantly prolonged the survival | dose dependent reduction in growth | minimal suppression in proliferation |
